Experimental data published in ChEMBL document CHEMBL6103639, “Structure-Based Development of 3,4-Fused Tricyclic Benzofuran Derivatives as Polyketide Synthase 13 Inhibitors with Negligible hERG Inhibition” (J Med Chem, 2025).

Legend:
Assay type in all cases: functional
[1] = test system: Mycobacterium tuberculosis; experiment: Antitubercular activity against Mycobacterium tuberculosis N1640S mutant assessed as reduction in microbial growth by microplate alamar blue assay
[2] = test system: Mycobacterium tuberculosis; experiment: Antitubercular activity against Mycobacterium tuberculosis N1640K mutant assessed as reduction in microbial growth by microplate alamar blue assay
[3] = test system: Mycobacterium tuberculosis; experiment: Antitubercular activity against Mycobacterium tuberculosis D1644G mutant assessed as reduction in microbial growth by microplate alamar blue assay
[4] = test system: Mycobacterium tuberculosis; experiment: Antitubercular activity against Mycobacterium tuberculosis A1667V mutant assessed as reduction in microbial growth by microplate alamar blue assay

Row | Structure (SMILES) | MIC [1] | MIC [2] | MIC [3] | MIC [4]
1 | CN1CN(CC2CC2)Cc2c(O)ccc3oc(-c4ccc(O)cc4)c(c23)C1=O | >64 µg/mL | >64 µg/mL | >64 µg/mL | >64 µg/mL
2 | CN1CN(CC2CCC2)Cc2c(O)ccc3oc(-c4ccc(O)cc4)c(c23)C1=O | >64 µg/mL | >64 µg/mL | >64 µg/mL | 8 µg/mL
3 | CN1CN(C2CCCC2)Cc2c(O)ccc3oc(-c4ccc(O)cc4)c(c23)C1=O | >64 µg/mL | >64 µg/mL | >64 µg/mL | 32 µg/mL
